Experiments:
HEK 293T cells = experiment: TdT-based nucleotide incorporation into hgRNA sites (DNA-synthesis based recording system, Cas9 + hgRNA + TdT) upon deoxyribonucleoside input signal; type: cell-based
Protocol: The disclosed system has been prototyped in HEK-293T cells. A hgRNA was co-expressed with terminal deoxynucleotidyl transferase (TdT), and Cas9. The TdT was directed to the double-stranded breaks created by Cas9 at the hgRNA sites and added nucleotides in HEK 293T cells (FIG. 1B).
HEK 293T cells were treated with an adenosine deaminase inhibitor, pentostatin (deoxycoformycin, dCF), that inhibits degradation of dAdo, resulting in an altered nucleotide pool. The added small molecules (dAdo, dGuo, dCF etc) were defined as the input signal. The percentage change in the TdT-based nucleotides incorporated into the hgRNA sites was defined as the output signal.
(§1) Further, this system allowed for the recording of a dose response in the output signal for varying concentrations of the input signals of dAdo, dThd and dGuo (FIGS. 2A, 2B and 2C). […] None of the current genetically encoded signal recording systems^12,13 synthesize a DNA-based record in a dose response manner in mammalian cells. This salient feature of being able to synthesize a record of various NTP concentrations in the genome of cells can help in the spatial reconstruction of tightly packed together cells in tissue. Moreover, since the output signal is high (e.g. with 5 mM dThd), several lower concentrations can be distinguished, thus providing a single-cell level resolution.

HEK cells = experiment: Toxicity of input signal treatment to cells; type: cell-based; conditions: 500 μM treatment
Description: as §1

[1] = input signal 5 mM, HEK 293T cells, FIG. 2B

`Cc1cn([C@H]2C[C@H](O)[C@@H](CO)O2)c(=O)[nH]c1=O` [dThd, deoxythymidine] was tested, and the “output signal (percentage change in TdT-based nucleotides incorporated into the hgRNA sites) for A” value (HEK 293T cells; [1]) was 8%, the “output signal (percentage change in TdT-based nucleotides incorporated into the hgRNA sites) for C” value (HEK 293T cells; [1]) was 10% and the “output signal (percentage change in TdT-based nucleotides incorporated into the hgRNA sites) for G” value (HEK 293T cells; [1]) was 17.5%. For the same compound, the “output signal (percentage change in TdT-based nucleotides incorporated into the hgRNA sites) for T” value (HEK 293T cells; [1]) was 20%.

For `Nc1ncnc2c1ncn2[C@H]1C[C@H](O)[C@@H](CO)O1` [dAdo, deoxyadenosine], the “toxicity to HEK cells” value (HEK cells) was “toxic”, the “dose response in the output signal with each increasing concentration of input signal” value (HEK 293T cells; 0 to 500 μM, except for 50 μM treatment, FIG. 2A) was “higher output signal” and the “output signal response to input signal (in words)” value (“output signal response” below) (HEK 293T cells; HEK 293T cells) was “high output signal response”.

In the case of `OC[C@H]1O[C@@H](n2cnc3c2NC=NC[C@H]3O)C[C@@H]1O` [dCF, pentostatin], the “output signal response” value (HEK 293T cells; HEK 293T cells) is reported as “high output signal response”.

With `Nc1nc2c(ncn2[C@H]2C[C@H](O)[C@@H](CO)O2)c(=O)[nH]1` [dGuo, deoxyguanosine] the “output signal response” value (HEK 293T cells; HEK 293T cells) was “high output signal response”.

Reference: patent US20220282295A1, “SINGLE-CELL LEVEL CONNECTOMICS USING A DNA-SYNTHESIS BASED BARCODING SYSTEM AND METHODS OF USING THE SAME” (Northwestern University, priority 2021, published 2022)
